{
  "source": "ChEMBL document CHEMBL1770146",
  "about": "“Structure-activity relationship studies of novel 3-oxazolidinedione-6-naphthyl-2-pyridinones as potent and orally bioavailable EP3 receptor antagonists” (Bioorg Med Chem Lett, 2011)",
  "key": {"[1]": {"target": "T1, Prostaglandin E2 receptor EP3 subtype (Homo sapiens, UniProt P43115)", "T1 sequence (P43115 whole entry)": "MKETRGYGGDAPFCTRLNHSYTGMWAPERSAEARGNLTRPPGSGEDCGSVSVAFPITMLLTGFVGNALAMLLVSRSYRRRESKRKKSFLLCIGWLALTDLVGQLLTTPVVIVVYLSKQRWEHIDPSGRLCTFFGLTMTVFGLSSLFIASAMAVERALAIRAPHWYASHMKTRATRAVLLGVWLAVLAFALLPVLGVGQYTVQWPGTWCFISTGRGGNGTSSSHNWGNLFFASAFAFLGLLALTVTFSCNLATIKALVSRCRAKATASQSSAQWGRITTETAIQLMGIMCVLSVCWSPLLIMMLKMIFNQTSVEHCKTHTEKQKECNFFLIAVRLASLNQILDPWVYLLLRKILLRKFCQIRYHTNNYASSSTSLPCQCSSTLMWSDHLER", "test": "Antagonist activity at human EP3 receptor expressed in CHO cells assessed as inhibition of PGE2-induced increase in intracellular calcium concentration after 1 hr by FLIPR assay", "assay_type": "functional, cell-based"}, "[2]": {"test": "Oral bioavailability in Sprague-Dawley rat at 2 mg/kg", "assay_type": "ADME, organism-based", "details": "in vivo"}, "Rattus norvegicus": {"test_system": "Rattus norvegicus", "test": "Dose normalized AUC in Sprague-Dawley rat at 2 mg/kg, po", "assay_type": "ADME, organism-based", "set-up": "dose 2 mg/kg, route oral", "details": "in vivo"}, "[3]": {"test": "Half life in Sprague-Dawley rat at 1 mg/kg, iv and 2 mg/kg, po", "assay_type": "ADME, organism-based", "details": "in vivo"}, "[4]": {"test": "Clearance in Sprague-Dawley rat at 1 mg/kg, iv and 2 mg/kg, po", "assay_type": "ADME, organism-based", "details": "in vivo"}, "[5]": {"target": "T2, Prostaglandin E2 receptor EP3 subtype (Rattus norvegicus) (UniProt P34980)", "T2 sequence (whole entry)": "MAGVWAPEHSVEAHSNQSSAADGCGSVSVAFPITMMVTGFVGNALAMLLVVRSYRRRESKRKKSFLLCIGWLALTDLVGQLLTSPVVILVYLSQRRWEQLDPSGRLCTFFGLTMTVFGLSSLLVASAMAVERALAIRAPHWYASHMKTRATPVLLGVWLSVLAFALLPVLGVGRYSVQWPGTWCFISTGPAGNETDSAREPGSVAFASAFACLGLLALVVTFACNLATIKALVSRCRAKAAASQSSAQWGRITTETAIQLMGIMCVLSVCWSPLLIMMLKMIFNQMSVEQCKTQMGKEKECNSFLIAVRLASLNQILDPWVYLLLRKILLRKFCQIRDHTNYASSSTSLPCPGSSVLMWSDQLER", "test": "Antagonist activity at rat EP3 receptor", "assay_type": "functional"}, "Canis lupus familiaris": {"species_on_record": "Canis lupus familiaris", "test": "Antagonist activity at dog EP3 receptor", "assay_type": "functional"}},
  "note": "Calls of active or inactive are those of the source. No cut-off for these calls is given here.",
  "data": [
    {"smiles": "CC(C)C1(c2ccc(-c3ccc4ccccc4c3)nc2)OC(=O)NC1=O", "note": "(centres undefined)", "values": [
      {"measurement": "Ki", "setting": "[1]", "value": "> 25100", "unit": "nM"}
    ]},
    {"smiles": "O=C1NC(=O)C(c2ccc(-c3ccc4ccccc4c3)[nH]c2=O)(C(F)(F)F)O1", "note": "(centres undefined)", "values": [
      {"measurement": "Ki", "setting": "[1]", "value": 126, "unit": "nM"}
    ]},
    {"smiles": "O=C1NC(=O)C(c2ccccc2)(c2ccc(-c3ccc4ccccc4c3)[nH]c2=O)O1", "note": "(centres undefined)", "values": [
      {"measurement": "Ki", "setting": "[1]", "value": 31.6, "unit": "nM"}
    ]},
    {"smiles": "O=C1NC(=O)C(c2ccc(-c3ccc4ccccc4c3)[nH]c2=O)(C2CC2)O1", "note": "(centres undefined)", "values": [
      {"measurement": "Ki", "setting": "[1]", "value": 50.1, "unit": "nM"}
    ]},
    {"smiles": "Cc1cc(C2(C(C)C)OC(=O)NC2=O)c(=O)[nH]c1-c1ccc2ccccc2c1", "note": "(centres undefined)", "values": [
      {"measurement": "bioavailability", "setting": "[2]", "value": 100, "unit": "%"},
      {"measurement": "Ki", "setting": "[1]", "value": 6.31, "unit": "nM"},
      {"measurement": "AUC", "setting": "Rattus norvegicus", "value": 13.5, "unit": "µg·h/mL"},
      {"measurement": "half-life", "setting": "[3]", "value": 396, "unit": "min"},
      {"measurement": "clearance", "setting": "[4]", "value": 1.4, "unit": "mL/min/kg"}
    ]},
    {"smiles": "CC(C)C1(c2c[nH]c(-c3ccc4ccccc4c3)cc2=O)OC(=O)NC1=O", "note": "(centres undefined)", "values": [
      {"measurement": "Ki", "setting": "[1]", "value": 794, "unit": "nM"}
    ]},
    {"smiles": "O=C1NC(=O)C(c2ccc(-c3ccc4ccccc4c3)[nH]c2=O)(C2CCOCC2)O1", "note": "(centres undefined)", "values": [
      {"measurement": "Ki", "setting": "[1]", "value": 200, "unit": "nM"}
    ]},
    {"smiles": "CC(C)C1(c2ccc(-c3ccc4ccccc4c3)[nH]c2=O)OC(O)=NC1=O", "note": "(centres undefined)", "values": [
      {"measurement": "bioavailability", "setting": "[2]", "value": 100, "unit": "%"},
      {"measurement": "AUC", "setting": "Rattus norvegicus", "value": 4.4, "unit": "µg·h/mL"},
      {"measurement": "half-life", "setting": "[3]", "value": 210, "unit": "min"},
      {"measurement": "clearance", "setting": "[4]", "value": 5.1, "unit": "mL/min/kg"}
    ]},
    {"smiles": "CC(C)C1(c2cc(-c3ccccc3)c(-c3ccc4ccccc4c3)[nH]c2=O)OC(=O)NC1=O", "note": "(centres undefined)", "values": [
      {"measurement": "Ki", "setting": "[1]", "value": 2510, "unit": "nM"}
    ]},
    {"smiles": "CC(C)C1(c2cc(Br)c(-c3ccc4ccccc4c3)[nH]c2=O)OC(=O)NC1=O", "note": "(centres undefined)", "values": [
      {"measurement": "Ki", "setting": "[1]", "value": 39.8, "unit": "nM"}
    ]},
    {"smiles": "Cn1c(-c2ccc3ccccc3c2)ccc(C2(C)OC(=O)NC2=O)c1=O", "note": "(centres undefined)", "values": [
      {"measurement": "Ki", "setting": "[1]", "value": "> 25100", "unit": "nM"}
    ]},
    {"smiles": "O=C1NC(=O)C(c2ccc(-c3ccc4ccccc4c3)[nH]c2=O)(C2CCCC2)O1", "note": "(centres undefined)", "values": [
      {"measurement": "Ki", "setting": "[1]", "value": 7.94, "unit": "nM"}
    ]},
    {"smiles": "O=C1NC(=O)C(Cc2ccccc2)(c2ccc(-c3ccc4ccccc4c3)[nH]c2=O)O1", "note": "(centres undefined)", "values": [
      {"measurement": "Ki", "setting": "[1]", "value": 15.8, "unit": "nM"}
    ]},
    {"smiles": "O=C1NC(=O)C(c2ccc(-c3ccc4ccccc4c3)[nH]c2=O)(C2CCCCC2)O1", "note": "(centres undefined)", "values": [
      {"measurement": "Ki", "setting": "[1]", "value": 7.94, "unit": "nM"}
    ]},
    {"smiles": "CC1(c2ccc(-c3ccc4ccccc4c3)cc2O)OC(=O)NC1=O", "note": "(centres undefined)", "values": [
      {"measurement": "Ki", "setting": "[1]", "value": 1260, "unit": "nM"}
    ]},
    {"smiles": "CC(C)C1(c2cc(Cl)c(-c3ccc4ccccc4c3)[nH]c2=O)OC(=O)NC1=O", "note": "(centres undefined)", "values": [
      {"measurement": "bioavailability", "setting": "[2]", "value": 86, "unit": "%"},
      {"measurement": "Ki", "setting": "[1]", "value": 50.1, "unit": "nM"},
      {"measurement": "AUC", "setting": "Rattus norvegicus", "value": 12.9, "unit": "µg·h/mL"},
      {"measurement": "half-life", "setting": "[3]", "value": 318, "unit": "min"},
      {"measurement": "clearance", "setting": "[4]", "value": 1.2, "unit": "mL/min/kg"}
    ]},
    {"smiles": "CC(C)[C@@]1(c2ccc(-c3ccc4ccccc4c3)[nH]c2=O)OC(=O)NC1=O", "values": [
      {"measurement": "Ki", "setting": "[1]", "value": 7.94, "unit": "nM"}
    ]},
    {"smiles": "CC(C)C1(c2ccc(-c3ccc4ccccc4c3)[nH]c2=O)OC(=O)NC1=O", "note": "(centres undefined)", "values": [
      {"measurement": "Activity", "setting": "[5]", "value": "Active"},
      {"measurement": "Activity", "setting": "Canis lupus familiaris", "value": "Active"}
    ]},
    {"smiles": "CN1C(=O)OC(C)(c2ccc(-c3ccc4ccccc4c3)[nH]c2=O)C1=O", "note": "(centres undefined)", "values": [
      {"measurement": "Ki", "setting": "[1]", "value": 501, "unit": "nM"}
    ]},
    {"smiles": "CC1(c2ccc(-c3ccc4ccccc4c3)[nH]c2=O)CNC(=O)O1", "note": "(centres undefined)", "values": [
      {"measurement": "Ki", "setting": "[1]", "value": 79.4, "unit": "nM"}
    ]},
    {"smiles": "CC1(c2ccc(-c3ccc4ccccc4c3)[nH]c2=O)NC(=O)NC1=O", "note": "(centres undefined)", "values": [
      {"measurement": "Ki", "setting": "[1]", "value": 316, "unit": "nM"}
    ]},
    {"smiles": "COc1cc(-c2ccc3ccccc3c2)ccc1C1(C)OC(=O)NC1=O", "note": "(centres undefined)", "values": [
      {"measurement": "Ki", "setting": "[1]", "value": 3160, "unit": "nM"}
    ]},
    {"smiles": "CC(C)N1C(=O)OC(C)(c2ccc(-c3ccc4ccccc4c3)[nH]c2=O)C1=O", "note": "(centres undefined)", "values": [
      {"measurement": "Ki", "setting": "[1]", "value": 1580, "unit": "nM"}
    ]},
    {"smiles": "CC(C)C1(c2cc(C(F)(F)F)c(-c3ccc4ccccc4c3)[nH]c2=O)OC(=O)NC1=O", "note": "(centres undefined)", "values": [
      {"measurement": "Ki", "setting": "[1]", "value": 631, "unit": "nM"}
    ]},
    {"smiles": "CC1(c2ccc(-c3ccc4ccccc4c3)[nH]c2=O)CNC(=O)N1", "note": "(centres undefined)", "values": [
      {"measurement": "Ki", "setting": "[1]", "value": 39.8, "unit": "nM"}
    ]},
    {"smiles": "CC1(c2ccc(-c3ccc4ccccc4c3)[nH]c2=O)OC(=O)NC1=O", "note": "(centres undefined)", "values": [
      {"measurement": "Ki", "setting": "[1]", "value": 20, "unit": "nM"}
    ]},
    {"smiles": "CC(C)[C@]1(c2ccc(-c3ccc4ccccc4c3)[nH]c2=O)OC(=O)NC1=O", "values": [
      {"measurement": "Ki", "setting": "[1]", "value": 20, "unit": "nM"}
    ]}
  ]
}
